Measured values taken from publication PMC6493276, “Quantification of 1D, a novel derivative of curcumin with potential antitumor activity, in rat plasma by liquid chromatography-tandem mass spectrometry: application to a pharmacokinetic study in rats” (Pharmaceutical Biology, 2019).

Assays:
HT29 cells = system: HT29 cells; set-up: method as in Tong et al. [2016]; conditions: treatment for 48 h, ref Tong et al. [2016]; cited from earlier work
HJ1299 cells = system: HJ1299 cells; set-up: method as in Tong et al. [2016]; conditions: treatment for 48 h, ref Tong et al. [2016]; cited from earlier work
[1] = Pharmacokinetic study in rats after single intravenous administration; format: in vivo; conditions: male, Sprague-Dawley, rat, plasma
Procedure: The applicability of the developed bioanalytical LC-MS/MS method was evaluated by quantitative determination of 1 D in rat plasma after single intravenous administration. All experimental procedures and animal care were performed following approval from the Ethic Committee of Laboratory Animals of the Affiliated Hospital of Qingdao University. Six male Sprague–Dawley rats, weighing 200 ± 15 g, were obtained from Beijing Vital River Experimental Animal Co. Ltd (Beijing, China). The animals were quarantined for 1 week prior to the study and were maintained on a 12 h light/12 h dark cycle at 22 ± 2 °C and at 50 ± 10% relative humidity. The rodents were given a commercial rat chow and water ad libitum. An intravenous dose of 5 mg/kg was selected based on our previous toxicological and pharmacodynamic studies in rats (unpublished data). The administration solution was prepared by dissolving 1 D in PEG400: PG400: DMSO: saline (30: 30: 1: 39, v/v/v/v) to give a concentration of 2 mg/mL. After fasting overnight, rats were given the prepared administration solution at 5 mg/kg via the tail vein. Blood samples (0.2 mL) were collected into heparinized tubes by retro-orbital puncture at 0 (pre-dose), 5, 10, 20, 30, and 45 min, and 1, 1.5, 2, 4, 8, 12, and 24 h after dosing. Plasma was separated by centrifugation at 4500 rpm for 10 min and stored at −20 °C until analysis. The pharmacokinetic parameters including area under the concentration-time curve (AUC), apparent volume of distribution (Vz), elimination half-life (t1/2), and clearance (CLz) were calculated by a non-compartmental analysis method using the DAS 3.0.2 pharmacokinetic programme. As observable parameters, the maximum plasma concentration (Cmax) and the time to reach the maximum concentration (Tmax) were obtained directly.

HCT116 cells = system: HCT116 cells; set-up: method as in Tong et al. [2016]; conditions: treatment for 48 h, ref Tong et al. [2016]; cited from earlier work
A549 cells = system: A549 cells; set-up: method as in Tong et al. [2016]; conditions: treatment for 48 h, ref Tong et al. [2016]; cited from earlier work
[2] = Stability of 1 D in rat plasma under various storage conditions; format: in vitro ADME; conditions: for Accuracy / Measured concentration (mean ± SD): n = 5
Procedure: The stability of 1 D in rat plasma was evaluated in five replicates at three QC levels under various storage conditions. […] Short-term and long-term stability were evaluated by storing plasma samples at room temperature for 6 h and −20 °C for 1 month before sample preparation. Freeze-thaw stability of QC samples was assessed after three freeze-thaw cycles (−20 to 25 °C). Autosampler stability was evaluated by keeping the extracted plasma samples in the autosampler for 24 h before analysis. Samples were considered to be stable if assay values were within the acceptable limits of accuracy (±15%) and precision (15% RSD).

[3] = single intravenous 5 mg/kg, n = 6
[4] = extracted rat plasma, spiked 10 ng/mL, autosampler for 24 h
[5] = extracted rat plasma, spiked 100 ng/mL, autosampler for 24 h
[6] = extracted rat plasma, spiked 500 ng/mL, autosampler for 24 h
[7] = rat plasma, spiked 10 ng/mL, 4 weeks at −20 °C
[8] = rat plasma, spiked 10 ng/mL, 6 h at 25 °C
[9] = rat plasma, spiked 10 ng/mL, three freeze-thaw cycles
[10] = rat plasma, spiked 100 ng/mL, 4 weeks at −20 °C
[11] = rat plasma, spiked 100 ng/mL, 6 h at 25 °C
[12] = rat plasma, spiked 100 ng/mL, three freeze-thaw cycles
[13] = rat plasma, spiked 500 ng/mL, 4 weeks at −20 °C
[14] = rat plasma, spiked 500 ng/mL, 6 h at 25 °C
[15] = rat plasma, spiked 500 ng/mL, three freeze-thaw cycles

In the case of `Br.COc1ccc(/C=C/c2cc(/C=C/c3ccc(OC)cc3)nc(OCCCCSC(=N)N)n2)cc1` [1 D, (E,E)-4-(4,6-bis(4-methoxystyryl)pyrimidin-2-yloxy)butyl carbamimidothioate hydrobromide], the IC50 (HT29 cells) is given as 790 nM, the IC50 (HJ1299 cells) is given as 920 nM and the AUC(0-t) ([1]; 5 mg/kg, intravenous administration, non-compartmental (abstract)) is given as 807 ng·h/mL. For the same molecule, the Cmax [1, 3] was 610 ng/mL, the Tmax [1, 3] was 4.8 min and the AUC(0-inf) ([1]; single intravenous 5 mg/kg, n = 6, non-compartmental) was 853 ng·h/mL. For the same molecule, the clearance ([1]; single intravenous 5 mg/kg, n = 6, read-out: CLz (clearance) (converted)) was 106 mL/min/kg, the MRT last ([1]; single intravenous 5 mg/kg, n = 6, read-out: MRT(0−t)) was 3.4 h and the MRT inf ([1]; single intravenous 5 mg/kg, n = 6, read-out: MRT(0−∞)) was 4.7 h. For the same molecule, the Vd ([1]; single intravenous 5 mg/kg, n = 6, read-out: Vz (apparent volume of distribution)) was 46.6 L/kg, the half-life ([1]; single intravenous 5 mg/kg, n = 6, read-out: t1/2 (elimination half-life) (converted)) was 4.92 h and the IC50 (HCT116 cells) was 1000 nM. The IC50 (A549 cells) was 990 nM, the Accuracy [2, 4] was 103.6% and the “Measured concentration (mean ± SD)” value [2, 4] was 10.36 ± 0.75 ng/mL. For the same molecule, the Accuracy [2, 5] was 101.5%, the “Measured concentration (mean ± SD)” value [2, 5] was 101.51 ± 6.43 ng/mL and the Accuracy [2, 6] was 96.2%. For the same molecule, the “Measured concentration (mean ± SD)” value [2, 6] was 481.19 ± 42.98 ng/mL, the Accuracy [2, 7] was 106.1% and the “Measured concentration (mean ± SD)” value [2, 7] was 10.61 ± 0.55 ng/mL. The Accuracy [2, 8] was 102.7%, the “Measured concentration (mean ± SD)” value [2, 8] was 10.27 ± 0.56 ng/mL and the Accuracy [2, 9] was 101.2%. For the same molecule, the “Measured concentration (mean ± SD)” value [2, 9] was 10.12 ± 0.66 ng/mL, the Accuracy [2, 10] was 98.4% and the “Measured concentration (mean ± SD)” value [2, 10] was 98.39 ± 7.52 ng/mL. The Accuracy [2, 11] was 104.7%, the “Measured concentration (mean ± SD)” value [2, 11] was 104.71 ± 5.16 ng/mL and the Accuracy [2, 12] was 99.4%. The “Measured concentration (mean ± SD)” value [2, 12] was 99.36 ± 6.92 ng/mL, the Accuracy [2, 13] was 103.7% and the “Measured concentration (mean ± SD)” value [2, 13] was 518.57 ± 43.30 ng/mL. For the same molecule, the Accuracy [2, 14] was 106.1%, the “Measured concentration (mean ± SD)” value [2, 14] was 530.28 ± 34.32 ng/mL and the Accuracy [2, 15] was 100.8%. The “Measured concentration (mean ± SD)” value [2, 15] was 503.88 ± 33.79 ng/mL and the “Changes in concentrations after storage (stability in rat plasma)” value ([2]; room temperature 6 h, −20 °C 1 month, autosampler 24 h, three freeze-thaw cycles) was “No significant changes”.
